Each structure is given as a SMILES string.

In patent US10858335B2 (Rigel Pharmaceuticals, Inc., priority 2014, dated 2020) one finds IC50 data, which are given here for 41 compounds.

The first test deals with GDF8 signaling (p-SMAD-3 (Ser423/425)). The test can be described thus: AlphaScreen SureFire SMAD3 (p-Ser423/425) assay, GDF8-stimulated cells (GDF pSMAD). Format: cell-based. To be noted: Mus musculus, MPC-11, GDF8-stimulated pSMAD3, MPC11; tested as the salt form given; read-out: GDF pSMAD (MPC11) (μM), inhibition of GDF8 signaling. In general terms: Alpha assays give light when donor and acceptor beads are brought close together.
In the case of `Cc1ccc(C)c(-c2ncccc2-c2ccc3ncnc(N)c3c2)c1` [compound 983, 6-(2-(2,5-dimethylphenyl)pyridin-3-yl)quinazolin-4-amine], the IC50 is 1.46 µM. In the case of `Nc1ncnc2ccc(-c3cccnc3-c3ccc(F)c(Cl)c3F)cc12` [compound 978, 6-(2-(3-chloro-2,4-difluorophenyl)pyridin-3-yl)quinazolin-4-amine], the IC50 is 1.87 µM. Take `Cc1cc(-c2ncccc2-c2ccc3ncsc3c2)c(C)cc1F` [compound 1061]: the IC50 was 0.473 µM.

The test is the same for the next values; noted with them: Mus musculus, MPC-11, MPC11; GDF8-stimulated; p-SMAD3 AlphaScreen; read-out: GDF pSMAD (MPC11) (inhibition of GDF8 signaling).
Regarding `Clc1ccc(Cl)c(-c2ncccc2-c2ccc3ncnn3c2)c1` [compound 771, 6-(2-(2,5-Dichlorophenyl)pyridin-3-yl)-[1,2,4]triazolo[1,5-a]pyridine], the IC50 stood at 1.11 µM. Regarding `Cc1cc(-c2ncccc2-c2ccc3ncnc(Oc4ccc(C#N)cc4)c3c2)ccc1F` [compound 440, 4-((6-(2-(4-Fluoro-3-methylphenyl)pyridin-3-yl)quinazolin-4-yl)oxy)benzonitrile], the IC50 was found to be 1.86 µM. Still for that read-out and setting: then `Cc1cc(-c2ncccc2-c2ccc3ncc(C#N)n3n2)ccc1F` [compound 947, 6-(2-(4-Fluoro-3-methylphenyl)pyridin-3-yl)imidazo[1,2-b]pyridazine-3-carbonitrile], with 0.429 µM. Same read-out and setting: with `Cc1cc(-c2ncccc2-c2cnc3cn[nH]c3c2)ccc1F` [Compound 138, 6-(2-(4-Fluoro-3-methylphenyl)pyridin-3-yl)-1H-pyrazolo[4,3-b]pyridine] the figure was 4.33 µM; with `Cc1cccc(-c2ncccc2-c2ccc3ncnn3c2)c1` [Compound 192, 6-(2-m-Tolylpyridin-3-yl)-[1,2,4]triazolo[1,5-a]pyridine], 0.347 µM; with `Cc1cc(-c2ncccc2-c2ccn3ncc(C(=O)NC4CC(C)(C)N(C)C(C)(C)C4)c3c2)ccc1F` [compound 703, 5-(2-(4-Fluoro-3-methylphenyl)pyridin-3-yl)-N-(1,2,2,6,6-pentamethylpiperidin-4-yl)pyrazolo[1,5-a]pyridine-3-carboxamide], 0.208 µM.

As to `Cn1cnc2ccc(-c3cccnc3-c3cccc(Cl)c3)cc21` [compound 769, 6-(2-(3-Chlorophenyl)pyridin-3-yl)-1-methyl-1H-benzo[d]imidazole], the IC50 is 0.153 µM. Take `Nc1ncnc2ccc(-c3cccnc3-c3ccc(F)c(Cl)c3)cc12` [compound 394, 6-(2-(3-Chloro-4-fluorophenyl)pyridin-3-yl)quinazolin-4-amine]: the IC50 came to 0.119 µM. Still for that read-out and setting: then `Cc1cc(-c2ncccc2-c2ccc3cncn3c2)ccc1F` [compound 269, 6-(2-(4-Fluoro-3-methylphenyl)pyridin-3-yl)imidazo[1,5-a]pyridine], with 1.38 µM; and `Fc1cnc(-c2cccc(C(F)(F)F)c2)c(-c2ccn3ncnc3c2)c1` [compound 863, 7-(2-(3-((Difluoro-13-methyl)-12-fluoranyl)phenyl)-5-fluoropyridin-3-yl)-[1,2,4]triazolo[1,5-a]pyridine], with 5.89 µM. Take `Cc1cc(-c2ncccc2-c2ccc3ncc(CO)n3c2)ccc1F` [compound 565, (6-(2-(4-Fluoro-3-methylphenyl)pyridin-3-yl)imidazo[1,2-a]pyridin-3-yl)methanol]: the IC50 is 0.406 µM. As to `c1cc(-c2ncccc2-c2ccc3nccn3c2)cc(C2CC2)c1` [Compound 193, 6-(2-(3-Cyclopropylphenyl)pyridin-3-yl)H-imidazo[1,2-a]pyridine], the IC50 is 0.243 µM. As to `Cc1cc(-c2ncccc2-c2ccc3ncc(C(=O)NCCN4CCN(C)CC4)n3c2)ccc1F` [compound 590, 6-(2-(4-Fluoro-3-methylphenyl)pyridin-3-yl)-N-(2-(4-methylpiperazin-1-yl)ethyl)imidazo[1,2-a]pyridine-3-carboxamide], the IC50 came out at 0.514 µM. Regarding `Cc1cc(-c2ncccc2-c2ccc3ncnc(NCCCN(C)C)c3c2)ccc1F` [compound 423, N1-(6-(2-(4-Fluoro-3-methylphenyl)pyridin-3-yl)quinazolin-4-yl)-N3,N3-dimethylpropane-1,3-diamine], the IC50 is 0.628 µM. Same read-out and setting: with `Cn1cnc2ccc(-c3cccnc3-c3cccc4cccnc34)cc2c1=O` [compound 382, 3-Methyl-6-(2-(quinolin-8-yl)pyridin-3-yl)quinazolin-4(3H)-one] the figure was 14.8 µM; with `Cc1cc(-c2ncc(NCc3cnc4[nH]ccc4c3)cc2-c2ccc3ncsc3c2)ccc1F` [compound 329, N-((1H-Pyrrolo[2,3-b]pyridin-5-yl)methyl)-5-(benzo[d]thiazol-6-yl)-6-(4-fluoro-3-methylphenyl)pyridin-3-amine], 0.803 µM. For the compound `Cc1cc(-c2ncccc2-c2ccc3cnc(-c4ccncc4)n3c2)ccc1F` [compound 282, 6-(2-(4-Fluoro-3-methylphenyl)pyridin-3-yl)-3-(pyridin-4-yl)imidazo[1,5-a]pyridine], the IC50 was 19.4 µM.

On to `c1cc(-c2ncccc2-c2ccc3ncnc(N4CCOCC4)c3c2)cc(C2CC2)c1` [compound 387, 4-(6-(2-(3-Cyclopropylphenyl)pyridin-3-yl)quinazolin-4-yl)morpholine], for which the IC50 is 1.28 µM. Turning to `Cc1cccc(-c2ncccc2-c2ccn3cncc3c2)c1` [compound 595, 7-(2-(m-Tolyl)pyridin-3-yl)imidazo[1,5-a]pyridine], the IC50 came to 1.16 µM. As to `FC(F)(F)c1cccc(-c2ncccc2-c2ccc3ncc(N4CCCC4)n3c2)c1` [compound 564, 3-(Pyrrolidin-1-yl)-6-(2-(3-(trifluoromethyl)phenyl)pyridin-3-yl)imidazo[1,2-a]pyridine], the IC50 was found to be 18.4 µM. For the compound `Nc1ncnc2ccc(-c3cccnc3-c3cc(Cl)ccc3Cl)cc12` [compound 501, 6-(2-(2,5-Dichlorophenyl)pyridin-3-yl)quinazolin-4-amine], the IC50 came to 0.355 µM.

Regarding `Fc1ccc(Cl)cc1-c1ncccc1-c1ccn2ncnc2c1` [compound 736, 7-(2-(5-Chloro-2-fluorophenyl)pyridin-3-yl)-[1,2,4]triazolo[1,5-a]pyridine], the IC50 was determined as 0.251 µM.

Regarding `N#Cc1cnc2ccc(-c3cccnc3-c3cccc(C4CC4)c3)cn12` [compound 559, 6-(2-(3-Cyclopropylphenyl)pyridin-3-yl)imidazo[1,2-a]pyridine-3-carbonitrile], the IC50 was determined as 0.162 µM.

Consider `Cc1cc(-c2ncccc2-c2ccc3ncc(C(=O)NC4CC(C)(C)N(C)C(C)(C)C4)n3c2)ccc1F` [compound 702, 6-(2-(4-Fluoro-3-methylphenyl)pyridin-3-yl)-N-(1,2,2,6,6-pentamethylpiperidin-4-yl)imidazo[1,2-a]pyridine-3-carboxamide], for which the IC50 was 0.882 µM.

With `Cc1cc(-c2ncc(NCc3cccc4cccnc34)cc2-c2ccc3ncsc3c2)ccc1F` [compound 336, 5-(Benzo[d]thiazol-6-yl)-6-(4-fluoro-3-methylphenyl)-N-(quinolin-8-ylmethyl)pyridin-3-amine], the IC50 worked out at 0.764 µM.

On to `Cc1cc(-c2ncccc2-c2ccc3ncsc3n2)ccc1F` [compound 303, 5-(2-(4-Fluoro-3-methylphenyl)pyridin-3-yl)thiazolo[5,4-b]pyridine], for which the IC50 is 0.0947 µM. Regarding `Clc1cccc(-c2ncccc2-c2ccc3nccn3n2)c1` [compound 936, 6-(2-(3-Chlorophenyl)pyridin-3-yl)imidazo[1,2-b]pyridazine], the IC50 is 0.228 µM.

For `Cc1cc(-c2ncccc2-c2ccn3ncc(C(=O)NCCN4CCOCC4)c3c2)ccc1F` [compound 674, 5-(2-(4-Fluoro-3-methylphenyl)pyridin-3-yl)-N-(2-morpholinoethyl)pyrazolo[1,5-a]pyridine-3-carboxamide], the IC50 worked out at 0.211 µM. In the case of `N#Cc1cnc2ccc(-c3cccnc3-c3ccc(F)c(Cl)c3)nn12` [compound 948, 6-(2-(3-Chloro-4-fluorophenyl)pyridin-3-yl)imidazo[1,2-b]pyridazine-3-carbonitrile], the IC50 came to 0.951 µM. Consider `Cc1cc(-c2ncc(NCc3ccc(O)c(C(F)(F)F)c3)cc2-c2ccc3ncsc3c2)ccc1F` [compound 370, 4-(((5-(Benzo[d]thiazol-6-yl)-6-(4-fluoro-3-methylphenyl)pyridin-3-yl)amino)methyl)-2-(trifluoromethyl)phenol], for which the IC50 was determined as 0.411 µM. Turning to `Cc1cc(-c2ncccc2-c2ccn3c(-c4ccncc4)ncc3c2)ccc1F` [compound 287, 7-(2-(4-Fluoro-3-methylphenyl)pyridin-3-yl)-3-(pyridin-4-yl)imidazo[1,5-a]pyridine], the IC50 worked out at 3.03 µM. As for `Oc1cccc(-c2ncccc2-c2cnc3cn[nH]c3c2)c1` [Compound 144, 3-(3-(1H-Pyrazolo[4,3-b]pyridin-6-yl)pyridin-2-yl)phenol], the IC50 was 9.39 µM. On to `COc1cc(NC(=O)c2cnc3ccc(-c4cccnc4-c4cccc(C)c4)cn23)cc(OC)c1OC` [compound 574, 6-(2-(m-Tolyl)pyridin-3-yl)-N-(3,4,5-trimethoxyphenyl)imidazo[1,2-a]pyridine-3-carboxamide], for which the IC50 was found to be 0.853 µM. Take `CC(=O)Nc1cccc(-c2ncccc2-c2ccc3ncn(C)c(=O)c3c2)c1` [compound 380, N-(3-(3-(3-Methyl-4-oxo-3,4-dihydroquinazolin-6-yl)pyridin-2-yl)phenyl)acetamide]: the IC50 stood at 18.5 µM. In the case of `Cc1cccc(-c2nc(N)ccc2-c2ccc3ncsc3c2)c1` [Compound 29, 5-(Benzo[d]thiazol-6-yl)-6-m-tolylpyridin-2-amine], the IC50 stood at 1.45 µM.

For `N#Cc1cnc2ccc(-c3cccnc3-c3ccc(F)c(C4CC4)c3)cn12` [compound 223, 6-(2-(3-Cyclopropyl-4-fluorophenyl)pyridin-3-yl)imidazo[1,2-a]pyridine-3-carbonitrile], the IC50 stood at 0.707 µM.

For `N#Cc1cnc2ccc(-c3cccnc3-c3cc(Cl)c(F)cc3F)cn12` [compound 720, 6-(2-(5-Chloro-2,4-difluorophenyl)pyridin-3-yl)imidazo[1,2-a]pyridine-3-carbonitrile], the IC50 stood at 0.822 µM. As to `OCc1cc(-c2ncccc2-c2ccc3[nH]ncc3c2)ccc1F` [Compound 89, (5-(3-(1H-Indazol-5-yl)pyridin-2-yl)-2-fluorophenyl)methanol], the IC50 was found to be 2.55 µM.
